Test results from ChEMBL document CHEMBL3044665, “Adzuki bean (Vigna angularis) responses to post-emergence herbicides” (Crop Prot, 2006).

Experiments:
Assay type in all cases: organism-based
[1] = test system: Vigna angularis; test: Phytotoxicity in Vigna angularis (adzuki bean) assessed as visual injury at 1080 g ai/ha after 14 days applied as spray relative to untreated control; details: in vivo, other, 336 h
[2] = test system: Vigna angularis; test: Phytotoxicity in Vigna angularis (adzuki bean) assessed as decrease in shoot dry weight at 1080 g ai/ha after 42 days applied as spray relative to untreated control; parameters: scale not given: the % may be the effect or the level left; details: in vivo, other, 1008 h
[3] = test system: Vigna angularis; test: Phytotoxicity in Vigna angularis (adzuki bean) assessed as seed moisture content at 2160 g ai/ha after 42 days applied as spray (reference value: 13.9%); details: in vivo, other, 1008 h, at 2160 g/ha
[4] = test system: Vigna angularis; test: Phytotoxicity in Vigna angularis (adzuki bean) assessed as visual injury at 1080 g ai/ha after 28 days applied as spray relative to untreated control; details: in vivo, other, 672 h
[5] = test system: Phaseolus vulgaris; test: Phytotoxicity in Phaseolus vulgaris (black bean) assessed as visual injury at 1080 g ai/ha applied as spray during post emergence after 7 days relative to untreated control; details: in vivo, other, 168 h
[6] = test system: Vigna angularis; test: Phytotoxicity in Vigna angularis (adzuki bean) assessed as visual injury at 2160 g ai/ha after 28 days applied as spray relative to untreated control; details: in vivo, other, 672 h
[7] = test system: Phaseolus vulgaris; test: Phytotoxicity in Phaseolus vulgaris (dry bean) assessed as visual injury at 1080 g ai/ha applied as spray during post emergence relative to untreated control; details: in vivo, other
[8] = test system: Vigna angularis; test: Phytotoxicity in Vigna angularis (adzuki bean) assessed as decrease in plant height at 2160 g ai/ha after 28 days applied as spray relative to untreated control; parameters: scale not given: the % may be the effect or the level left; details: in vivo, other, 672 h
[9] = test system: Phaseolus vulgaris; test: Phytotoxicity in Phaseolus vulgaris (cranberry bean) assessed as visual injury at 1080 g ai/ha applied as spray during post emergence after 7 days relative to untreated control; details: in vivo, other, 168 h
[10] = test system: Vigna angularis; test: Phytotoxicity in Vigna angularis (adzuki bean) assessed as seed moisture content at 1080 g ai/ha after 42 days applied as spray (reference value: 13.9%); details: in vivo, other, 1008 h, at 1080 g/ha
[11] = test system: Vigna angularis; test: Phytotoxicity in Vigna angularis (adzuki bean) assessed as decrease in crop yield at 1080 g ai/ha measured during post emergence applied as spray relative to untreated control; details: in vivo, other
[12] = test system: Vigna angularis; test: Phytotoxicity in Vigna angularis (adzuki bean) assessed as visual injury at 2160 g ai/ha after 7 days applied as spray relative to untreated control; details: in vivo, other, 168 h
[13] = test system: Vigna angularis; test: Phytotoxicity in Vigna angularis (adzuki bean) assessed as decrease in plant height at 1080 g ai/ha after 28 days applied as spray relative to untreated control; parameters: scale not given: the % may be the effect or the level left; details: in vivo, other, 672 h
[14] = test system: Phaseolus vulgaris; test: Phytotoxicity in Phaseolus vulgaris (white navy bean) assessed as decrease in crop yield relative to untreated control; details: in vivo
[15] = test system: Vigna angularis; test: Phytotoxicity in Vigna angularis (adzuki bean) assessed as visual injury at 1080 g ai/ha after 7 days applied as spray relative to untreated control; details: in vivo, other, 168 h
[16] = test system: Vigna angularis; test: Phytotoxicity in Vigna angularis (adzuki bean) assessed as decrease in crop yield at 2160 g ai/ha measured during post emergence applied as spray relative to untreated control; details: in vivo, other
[17] = test system: Vigna angularis; test: Phytotoxicity in Vigna angularis (adzuki bean) assessed as decrease in shoot dry weight at 2160 g ai/ha after 42 days applied as spray relative to untreated control; parameters: scale not given: the % may be the effect or the level left; details: in vivo, other, 1008 h
[18] = test system: Vigna angularis; test: Phytotoxicity in Vigna angularis (adzuki bean) assessed as visual injury at 2160 g ai/ha after 14 days applied as spray relative to untreated control; details: in vivo, other, 336 h
[19] = test system: Vigna angularis; test: Phytotoxicity in Vigna angularis (adzuki bean) assessed as visual injury at 240 g ai/ha after 7 days applied as spray relative to untreated control; details: in vivo, other, 168 h
[20] = test system: Vigna angularis; test: Phytotoxicity in Vigna angularis (adzuki bean) assessed as plant height at 240 g ai/ha after 28 days applied as spray (RVB = 34 cm); details: in vivo, other, 672 h
[21] = test system: Vigna angularis; test: Phytotoxicity in Vigna angularis (adzuki bean) assessed as visual injury at 240 g ai/ha after 14 days applied as spray relative to untreated control; details: in vivo, other, 336 h
[22] = test system: Vigna angularis; test: Phytotoxicity in Vigna angularis (adzuki bean) assessed as plant height at 480 g ai/ha after 28 days applied as spray (RVB = 34 cm); details: in vivo, other, 672 h
[23] = test system: Vigna angularis; test: Phytotoxicity in Vigna angularis (adzuki bean) assessed as visual injury at 240 g ai/ha after 28 days applied as spray relative to untreated control; details: in vivo, other, 672 h
[24] = test system: Vigna angularis; test: Phytotoxicity in Vigna angularis (adzuki bean) assessed as visual injury at 480 g ai/ha after 7 days applied as spray relative to untreated control; details: in vivo, other, 168 h
[25] = test system: Vigna angularis; test: Phytotoxicity in Vigna angularis (adzuki bean) assessed as decrease in shoot dry weight at 480 g ai/ha after 42 days applied as spray relative to untreated control; parameters: scale not given: the % may be the effect or the level left; details: in vivo, other, 1008 h
[26] = test system: Vigna angularis; test: Phytotoxicity in Vigna angularis (adzuki bean) assessed as visual injury at 480 g ai/ha after 14 days applied as spray relative to untreated control; details: in vivo, other, 336 h
[27] = test system: Vigna angularis; test: Phytotoxicity in Vigna angularis (adzuki bean) assessed as visual injury at 480 g ai/ha after 28 days applied as spray relative to untreated control; details: in vivo, other, 672 h
[28] = test system: Vigna angularis; test: Phytotoxicity in Vigna angularis (adzuki bean) assessed as crop yield at 240 g ai/ha measured during post-emergence applied as spray (reference value: 2.05 t/ha); details: in vivo, other
[29] = test system: Vigna angularis; test: Phytotoxicity in Vigna angularis (adzuki bean) assessed as crop yield at 480 g ai/ha measured during post emergence applied as spray (reference value: 2.05 t/ha); details: in vivo, other
[30] = test system: Vigna angularis; test: Phytotoxicity in Vigna angularis (adzuki bean) assessed as seed moisture content at 240 g ai/ha after 42 days applied as spray (reference value: 13.9%); details: in vivo, other, 1008 h, at 240 g/ha
[31] = test system: Vigna angularis; test: Phytotoxicity in Vigna angularis (adzuki bean) assessed as seed moisture content at 480 g ai/ha after 42 days applied as spray (reference value: 13.9%); details: in vivo, other, 1008 h, at 480 g/ha
[32] = test system: Vigna angularis; test: Phytotoxicity in Vigna angularis (adzuki bean) assessed as shoot dry weight at 240 g ai/ha measured per 1 m row after 42 days applied as spray (reference value: 153 g); details: in vivo, other, 1008 h

Work on CC(C)N1C(=O)c2ccccc2NS1(=O)=O [BENTAZON] yielded an Activity [1] of 33.2%, an Activity [2] of 60% and an Activity [3] of 15.3%. For the same compound, the Activity [4] was 29.8%, the Activity [5] was < 3% and the Activity [6] was 38.1%. The Activity [7] was 3%, the Activity [8] was 43% and the Activity [9] was < 2%. It also gave an Activity [10] of 15%, a Crop_yield [11] of 48% and an Activity [12] of 36.4%. The Activity [13] was 37%, the Crop_yield [14] was “<= 21%” and the Activity [15] was 29.5%. It also gave a Crop_yield [16] of 56%, an Activity [17] of 65% and an Activity [18] of 43.5%.

With CS(=O)(=O)NC(=O)c1cc(Oc2ccc(C(F)(F)F)cc2Cl)ccc1[N+](=O)[O-] [FOMESAFEN] the Activity [19] was 6.8%, the Activity [20] was 32.4 cm and the Activity [21] was 4.6%. It also gave an Activity [22] of 31.3 cm, an Activity [23] of 1.7% and an Activity [24] of 9.8%. For the same compound, the Activity [25] was 16%, the Activity [26] was 7.2% and the Activity [27] was 2.6%. It also gave a Crop_yield [28] of 1.88 tons/ha, a Crop_yield [29] of 1.81 tons/ha and an Activity [30] of 14.2%. The Activity [31] was 14.4% and the Activity [32] was 140 g.
